Measurements reported in PubChem BioAssay AID1963432 (Molecular Pharmacology Branch, DTP, NCI, 2024).
pIC50: −log10 of the molar value. Where “and” joins values, the source holds several entries; their conditions need not be identical. Identical values can stand only once.

System: SYO-1 complex spheroid growth, percent test/control
Assay: Anticancer human tumor SYO-1 cell line growth inhibition [Asc];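 note: compound exposure lasted 7 days after spheroids grew 3 days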;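 for viability, T/C: 100% = DMSO vehicle control viability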
Conditions: for viability, T/C: stronger effect = lower value
Procedure, shortened: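 Spheroid model: tumor line + HUVEC + hMSC. Single agents and combinations; top conc. at/near clinical Cmax (10 microM if undetermined), half-log dilutions. DMSO stocks at 800-fold test concentration.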

[1] = curve of first compound, second compound 0.0316 µM
[2] = curve of first compound, second compound 0.1 µM
[3] = curve of first compound, second compound 0.316 µM
[4] = curve of first compound, second compound 1 µM
[5] = second compound 0.0316 µM, first compound 0.0316 µM
[6] = second compound 0.0316 µM, first compound 0.1 µM
[7] = second compound 0.0316 µM, first compound 0.316 µM
[8] = second compound 0.0316 µM, first compound 1 µM
[9] = second compound 0.1 µM, first compound 0.0316 µM
[10] = second compound 0.1 µM, first compound 0.1 µM
[11] = second compound 0.1 µM, first compound 0.316 µM
[12] = second compound 0.1 µM, first compound 1 µM
[13] = second compound 0.316 µM, first compound 0.0316 µM
[14] = second compound 0.316 µM, first compound 0.1 µM
[15] = second compound 0.316 µM, first compound 0.316 µM
[16] = second compound 0.316 µM, first compound 1 µM
[17] = second compound 1 µM, first compound 0.0316 µM
[18] = second compound 1 µM, first compound 0.1 µM
[19] = second compound 1 µM, first compound 0.316 µM
[20] = second compound 1 µM, first compound 1 µM

**Q.** `CNC(C)C(=O)NC1CN(S(=O)(=O)c2cccc(S(=O)(=O)N3CCC4CCC(C(=O)NC(c5ccccc5)c5ccccc5)N4C(=O)C(NC(=O)C(C)NC)C3)c2)CCC2CCC(C(=O)NC(c3ccccc3)c3ccccc3)N2C1=O` (centres undefined) + Cc1c(S(C)(=O)=O)c(-c2cc(F)cc(N3CCN(c4ccc(NS(=O)(=O)c5ccc(NC(CCN6CCC(C(=O)OCCCP(=O)(O)O)CC6)CSc6ccccc6)c(S(=O)(=O)C(F)(F)F)c5)cc4)CC3)c2)c(-c2ccc(Cl)cc2)n1C(C)C was tested. Which pIC50 [1] did it give?
**A.** The pIC50 was less than 6.00.

**Q.** And the pIC50 [2]?
**A.** Its pIC50 is less than 6.00.

**Q.** What about the pIC50 [3] of the same compound?
**A.** The pIC50 was less than 6.00.

**Q.** What about the pIC50 [4] of the same compound?
**A.** The pIC50 was less than 6.00.

**Q.** And the pIC50 (curve of first compound, second compound 3.16 µM)?
**A.** Its pIC50 is less than 6.00.

**Q.** And the pIC50 (curve of first compound, second compound 10 µM)?
**A.** Its pIC50 is less than 6.00.

**Q.** What about the viability, T/C (second compound 0.0316 µM, first compound 0.00316 µM) of the same compound?
**A.** The viability, T/C was 94.8%.

**Q.** And the viability, T/C (second compound 0.0316 µM, first compound 0.01 µM)?
**A.** The viability, T/C was 97.2%.

**Q.** What about the viability, T/C [5] of the same compound?
**A.** Its viability, T/C is 95.6%.

**Q.** What about the viability, T/C [6] of the same compound?
**A.** The viability, T/C was 93.3%.

**Q.** What about the viability, T/C [7] of the same compound?
**A.** Its viability, T/C is 98.4%.

**Q.** What about the viability, T/C [8] of the same compound?
**A.** The viability, T/C was 103%.

**Q.** What about the viability, T/C (second compound 0.1 µM, first compound 0.00316 µM) of the same compound?
**A.** Its viability, T/C is 101%.

**Q.** And the viability, T/C (second compound 0.1 µM, first compound 0.01 µM)?
**A.** The viability, T/C was 99.9%.

**Q.** And the viability, T/C [9]?
**A.** The viability, T/C was 98.4%.

**Q.** What about the viability, T/C [10] of the same compound?
**A.** The viability, T/C was 97.9%.

**Q.** And the viability, T/C [11]?
**A.** The viability, T/C was 95.7%.

**Q.** What about the viability, T/C [12] of the same compound?
**A.** Its viability, T/C is 92.8%.

**Q.** What about the viability, T/C (second compound 0.316 µM, first compound 0.00316 µM) of the same compound?
**A.** Its viability, T/C is 96.4%.

**Q.** And the viability, T/C (second compound 0.316 µM, first compound 0.01 µM)?
**A.** Its viability, T/C is 91.8%.

**Q.** What about the viability, T/C [13] of the same compound?
**A.** The viability, T/C was 89%.

**Q.** And the viability, T/C [14]?
**A.** Its viability, T/C is 99.3%.

**Q.** What about the viability, T/C [15] of the same compound?
**A.** The viability, T/C was 96.6%.

**Q.** And the viability, T/C [16]?
**A.** Its viability, T/C is 85.8%.

**Q.** What about the viability, T/C (second compound 1 µM, first compound 0.00316 µM) of the same compound?
**A.** Its viability, T/C is 96.6%.

**Q.** And the viability, T/C (second compound 1 µM, first compound 0.01 µM)?
**A.** Its viability, T/C is 90.8%.

**Q.** And the viability, T/C [17]?
**A.** Its viability, T/C is 89.8%.

**Q.** What about the viability, T/C [18] of the same compound?
**A.** Its viability, T/C is 90.5%.

**Q.** What about the viability, T/C [19] of the same compound?
**A.** The viability, T/C was 88.9%.

**Q.** And the viability, T/C [20]?
**A.** The viability, T/C was 101%.

**Q.** And the viability, T/C (second compound 3.16 µM, first compound 0.00316 µM)?
**A.** The viability, T/C was 98.5%.

**Q.** What about the viability, T/C (second compound 3.16 µM, first compound 0.01 µM) of the same compound?
**A.** Its viability, T/C is 88.1%.

**Q.** And the viability, T/C (second compound 3.16 µM, first compound 0.0316 µM)?
**A.** The viability, T/C was 84.5%.

**Q.** And the viability, T/C (second compound 3.16 µM, first compound 0.1 µM)?
**A.** The viability, T/C was 85.5%.

**Q.** What about the viability, T/C (second compound 3.16 µM, first compound 0.316 µM) of the same compound?
**A.** Its viability, T/C is 89.9%.

**Q.** And the viability, T/C (second compound 3.16 µM, first compound 1 µM)?
**A.** Its viability, T/C is 82%.

**Q.** And the viability, T/C (second compound 10 µM, first compound 0.00316 µM)?
**A.** The viability, T/C was 94.7%.

**Q.** What about the viability, T/C (second compound 10 µM, first compound 0.01 µM) of the same compound?
**A.** Its viability, T/C is 83.9%.

**Q.** And the viability, T/C (second compound 10 µM, first compound 0.0316 µM)?
**A.** The viability, T/C was 74.6%.

**Q.** What about the viability, T/C (second compound 10 µM, first compound 0.1 µM) of the same compound?
**A.** Its viability, T/C is 72.5%.

**Q.** What about the viability, T/C (second compound 10 µM, first compound 0.316 µM) of the same compound?
**A.** The viability, T/C was 85.7%.

**Q.** And the viability, T/C (second compound 10 µM, first compound 1 µM)?
**A.** The viability, T/C was 71.1%.

**Q.** For `O=C(c1ccc(F)c(F)c1Nc1ccc(I)cc1F)N1CC(O)([C@@H]2CCCCN2)C1`, which viability, T/C (compound 0.00316 µM) is on record?
**A.** Its viability, T/C is 105% and 97.6% and 106%.

**Q.** What about the viability, T/C (compound 0.01 µM) of the same compound?
**A.** The viability, T/C was 104% and 97% and 105%.

**Q.** And the viability, T/C (compound 0.0316 µM)?
**A.** Its viability, T/C is 103% (2×) and 102%.

**Q.** What about the viability, T/C (compound 0.1 µM) of the same compound?
**A.** Its viability, T/C is 108% (2×) and 102%.

**Q.** What about the viability, T/C (compound 0.316 µM) of the same compound?
**A.** The viability, T/C was 111% and 99.2% and 96.4%.

**Q.** What about the viability, T/C (compound 1 µM) of the same compound?
**A.** The viability, T/C was 104% and 106% and 101%.

**Q.** And the pIC50 (curve of compound)?
**A.** Its pIC50 is less than 6.00.

**Q.** With `C=C(F)C(=O)N1CCN(c2nc(OCC3CCCN3C)nc3c2CCN(c2cccc4cccc(Cl)c24)C3)CC1CC#N` (centres undefined) + CNC(C)C(=O)NC1CN(S(=O)(=O)c2cccc(S(=O)(=O)N3CCC4CCC(C(=O)NC(c5ccccc5)c5ccccc5)N4C(=O)C(NC(=O)C(C)NC)C3)c2)CCC2CCC(C(=O)NC(c3ccccc3)c3ccccc3)N2C1=O as the compound, how does the pIC50 (curve of first compound, second compound 0.01 µM) read?
**A.** Its pIC50 is 5.25.

**Q.** What about the pIC50 [1] of the same compound?
**A.** The pIC50 was 5.25.

**Q.** What about the pIC50 [2] of the same compound?
**A.** The pIC50 was 5.25.

**Q.** And the pIC50 [3]?
**A.** The pIC50 was 5.26.

**Q.** What about the pIC50 [4] of the same compound?
**A.** Its pIC50 is 5.27.

**Q.** What about the viability, T/C (second compound 0.01 µM, first compound 0.0316 µM) of the same compound?
**A.** The viability, T/C was 99.1%.

**Q.** What about the viability, T/C (second compound 0.01 µM, first compound 0.1 µM) of the same compound?
**A.** The viability, T/C was 113%.

**Q.** What about the viability, T/C (second compound 0.01 µM, first compound 0.316 µM) of the same compound?
**A.** Its viability, T/C is 104%.

**Q.** What about the viability, T/C (second compound 0.01 µM, first compound 1 µM) of the same compound?
**A.** The viability, T/C was 99.7%.

**Q.** And the viability, T/C (second compound 0.01 µM, first compound 3.16 µM)?
**A.** The viability, T/C was 101%.

**Q.** And the viability, T/C (second compound 0.01 µM, first compound 10 µM)?
**A.** Its viability, T/C is 0.23%.

**Q.** And the viability, T/C [5]?
**A.** The viability, T/C was 96.7%.

**Q.** What about the viability, T/C [6] of the same compound?
**A.** The viability, T/C was 103%.

**Q.** What about the viability, T/C [7] of the same compound?
**A.** Its viability, T/C is 101%.

**Q.** What about the viability, T/C [8] of the same compound?
**A.** Its viability, T/C is 98.3%.

**Q.** What about the viability, T/C (second compound 0.0316 µM, first compound 3.16 µM) of the same compound?
**A.** The viability, T/C was 99%.

**Q.** What about the viability, T/C (second compound 0.0316 µM, first compound 10 µM) of the same compound?
**A.** The viability, T/C was 0.22%.

**Q.** And the viability, T/C [9]?
**A.** Its viability, T/C is 100%.

**Q.** What about the viability, T/C [10] of the same compound?
**A.** The viability, T/C was 105%.

**Q.** And the viability, T/C [11]?
**A.** The viability, T/C was 95%.

**Q.** And the viability, T/C [12]?
**A.** Its viability, T/C is 97.2%.

**Q.** What about the viability, T/C (second compound 0.1 µM, first compound 3.16 µM) of the same compound?
**A.** Its viability, T/C is 98.6%.

**Q.** What about the viability, T/C (second compound 0.1 µM, first compound 10 µM) of the same compound?
**A.** The viability, T/C was 0.21%.

**Q.** What about the viability, T/C [13] of the same compound?
**A.** The viability, T/C was 98.5%.

**Q.** What about the viability, T/C [14] of the same compound?
**A.** Its viability, T/C is 103%.

**Q.** What about the viability, T/C [15] of the same compound?
**A.** The viability, T/C was 103%.

**Q.** And the viability, T/C [16]?
**A.** Its viability, T/C is 88.7%.

**Q.** What about the viability, T/C (second compound 0.316 µM, first compound 3.16 µM) of the same compound?
**A.** Its viability, T/C is 95%.

**Q.** What about the viability, T/C (second compound 0.316 µM, first compound 10 µM) of the same compound?
**A.** The viability, T/C was 0.23%.

**Q.** What about the viability, T/C [17] of the same compound?
**A.** Its viability, T/C is 104%.

**Q.** What about the viability, T/C [18] of the same compound?
**A.** The viability, T/C was 104%.

**Q.** What about the viability, T/C [19] of the same compound?
**A.** The viability, T/C was 101%.

**Q.** What about the viability, T/C [20] of the same compound?
**A.** The viability, T/C was 94.2%.

**Q.** And the viability, T/C (second compound 1 µM, first compound 3.16 µM)?
**A.** The viability, T/C was 92.3%.

**Q.** And the viability, T/C (second compound 1 µM, first compound 10 µM)?
**A.** The viability, T/C was 0.26%.
